In patent US7807201B2, “Antifungal agent comprising natural plant extracts” (Binex Co., Ltd., priority 2007, dated 2010):

Test system: Saprolegnia parasitica
Test: Antifungal effect at different concentrations by 24-well plate method (MIC)
Assay type: cell-based
Conditions: for Antifungal effect: water mould Saprolegnia parasitica on GY agar
Description: Water moulds were taken from the body surface of rainbow trout. The water moulds were isolated and subcultured using GY medium (broth) containing 10 g/L of glucose and 2.5 g/L of yeast extract and GY medium (agar) containing 10 g/L of glucose, 2.5 g/L of yeast extract and 7.5 g/L of agar. The pathogenic water moulds were isolated and identified as Saprolegnia parasitica (Gene Bank Data homology search result: 99%) through ITS-5.8S rDNA sequencing at the Korean Culture Center of Microorganisms (KCCM) of the Korean Federation of Culture Collections (KFCC). The natural product sweet flag extract was compared with malachite green. Antifungal effect and minimal inhibitory concentration (MIC) were tested by the 24-well plate method and the diffusion method.
GY agar was placed on a sterilized 24-well plate. […] Hyphae of Saprolegnia parasitica, which had been cultured in GY agar plate, taken with a 50 mL syringe were added to each plate and antifungal activity test was carried out for 72 hours. Photographs were taken every 24 hours.
GY agar was placed on a sterilized 24-well plate. After waiting until the medium was dry, each 100 μL of 20 ppm, 2 ppm and 0.2 ppm malachite green (MG) was added to the GY medium (control), in the same manner as in FIG. 1. Hyphae of Saprolegnia parasitica, which had been cultured in GY agar plate, taken with a 50 mL syringe were added to each plate and antifungal activity test was carried out for 72 hours. Photographs were taken every 24 hours.

**Q.** Which Antifungal effect (0.2 ppm) does the source give for CN(C)c1ccc(C(=C2C=CC(=[N+](C)C)C=C2)c2ccccc2)cc1 [MG, malachite green] here?
**A.** The Antifungal effect was “+”.

**Q.** What about the Antifungal effect (2 ppm) of the same compound?
**A.** Its Antifungal effect is “++”.

**Q.** And the Antifungal effect (20 ppm)?
**A.** Its Antifungal effect is “+++”.

**Q.** What about the MIC (Saprolegnia parasitica, read-out: MIC (minimal inhibitory concentration)) of the same compound?
**A.** The MIC was 2 µg/mL.
